# Source: PubChem BioAssay AID330 (DTP/NCI, 2004)
# “And” between values parts separate entries of the source, which are not always exact repeats. Equal values may be shown once. Inconclusive results and toxic doses are left out. Peptide text beside a SMILES is read from it. * marks the point of attachment. Cbz = O=C(OCc1ccccc1)*
# System: P388 leukemia ip, CD2F1 mice, survival T/C
# Assay: NCI In Vivo Anticancer Drug Screen. Data for tumor model P388 Leukemia (intraperitoneal) in CD2F1 (CDF1) mice
# Conditions: endpoint: median survival time, higher = longer survival
# Procedure, shortened: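 Mice carrying the transplanted tumor received test compound or vehicle. Survival was recorded in each group, and the value is the treated-group measurement divided by that of the vehicle-treated control group.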
# [1] = dose: 50.0 mg/kg/injection, schedule: Q01DX009 (ip), vehicle: Klucel (hydroxypropylcellulose) (HPC)
# [2] = dose: 100.0 mg/kg/injection, schedule: Q01DX009 (ip), vehicle: Klucel (hydroxypropylcellulose) (HPC)
# [3] = dose: 50.0 mg/kg/injection, schedule: Q01DX009 (ip), vehicle: saline with Tween-80
# [4] = dose: 12.5 mg/kg/injection, schedule: Q01DX009 (ip), vehicle: saline with Tween-80
# [5] = dose: 25.0 mg/kg/injection, schedule: Q01DX009 (ip), vehicle: saline with Tween-80
# [6] = dose: 200.0 mg/kg/injection, schedule: Q01DX009 (ip), vehicle: Klucel (hydroxypropylcellulose) (HPC)
smiles,measurement,setting,value
O=C1C2C3CCC(O3)C2C(=O)N1SC(Cl)(Cl)Cl (stereo unspecified),T/C,"dose: 3.12 mg/kg/injection, schedule: Q01DX009 (ip), vehicle: saline",101 % of control
same,T/C,"dose: 6.25 mg/kg/injection, schedule: Q01DX009 (ip), vehicle: saline",108 % of control
same,T/C,"dose: 12.5 mg/kg/injection, schedule: Q01DX009 (ip), vehicle: saline",100 % of control
CS(=O)(=O)OCC(Br)C(Br)COS(C)(=O)=O (stereo unspecified),T/C,[1],107 % of control
same,T/C,[2],87 % of control
CC(C)CC(NC(=O)C(Cc1cnc[nH]1)NC(=O)OCc1ccccc1)C(=O)O (stereo not drawn) (Cbz-His-Leu-OH; configuration not given here),T/C,"dose: 50.0 mg/kg/injection, schedule: Q01DX005 (ip), vehicle: Klucel (hydroxypropylcellulose) (HPC)",102 % of control
same,T/C,"dose: 100.0 mg/kg/injection, schedule: Q01DX005 (ip), vehicle: Klucel (hydroxypropylcellulose) (HPC)",104 % of control
same,T/C,"dose: 200.0 mg/kg/injection, schedule: Q01DX005 (ip), vehicle: Klucel (hydroxypropylcellulose) (HPC)",104 % of control
O=c1[nH]c(CNCCO)nc2sc3c(c12)CCCC3,T/C,[3],100 % of control
same,T/C,"dose: 100.0 mg/kg/injection, schedule: Q01DX009 (ip), vehicle: saline with Tween-80",105 % of control
same,T/C,"dose: 200.0 mg/kg/injection, schedule: Q01DX009 (ip), vehicle: saline with Tween-80",96 % of control
[Cu+2].[NH-]CC1CCCC[N-]1.[NH-]CC1CCCC[N-]1.[O-][Cl+3]([O-])([O-])O (stereo unspecified),T/C,"dose: 6.25 mg/kg/injection, schedule: Q01DX009 (ip), vehicle: saline with Tween-80",103 % of control
same,T/C,[4],100 % of control and 96 % of control
same,T/C,[5],107 % of control
CNC[C@@H](O)c1ccc(O)c(O)c1,T/C,"dose: 0.78 mg/kg/injection, schedule: Q01DX009 (ip), vehicle: suspension in saline",97 % of control
same,T/C,"dose: 1.56 mg/kg/injection, schedule: Q01DX009 (ip), vehicle: suspension in saline",104 % of control
same,T/C,"dose: 3.12 mg/kg/injection, schedule: Q01DX009 (ip), vehicle: suspension in saline",104 % of control
C=CC1(OC)CC1C(=O)OCC (stereo unspecified),T/C,"dose: 43.0 mg/kg/injection, schedule: Q01DX005 (ip), vehicle: Klucel (hydroxypropylcellulose) (HPC)",99 % of control
same,T/C,"dose: 86.0 mg/kg/injection, schedule: Q01DX005 (ip), vehicle: Klucel (hydroxypropylcellulose) (HPC)",112 % of control
same,T/C,"dose: 172.0 mg/kg/injection, schedule: Q01DX005 (ip), vehicle: Klucel (hydroxypropylcellulose) (HPC)",97 % of control
C[Si](C)(C)/C=C1\OC=CC(c2ccccc2)O1 (stereo unspecified),T/C,"dose: 100.0 mg/kg/injection, schedule: Q01DX001 (ip), vehicle: saline with Tween-80",99 % of control
same,T/C,"dose: 200.0 mg/kg/injection, schedule: Q01DX001 (ip), vehicle: saline with Tween-80",100 % of control
same,T/C,"dose: 400.0 mg/kg/injection, schedule: Q01DX001 (ip), vehicle: saline with Tween-80",103 % of control
Cc1ccc(S(=O)(=O)C2(NC(=O)C3CC3)CC2)cc1,T/C,"dose: 60.0 mg/kg/injection, schedule: Q01DX005 (ip), vehicle: Klucel (hydroxypropylcellulose) (HPC)",89 % of control
same,T/C,"dose: 120.0 mg/kg/injection, schedule: Q01DX005 (ip), vehicle: Klucel (hydroxypropylcellulose) (HPC)",89 % of control
CC(C)(C)N1CC1CN (stereo unspecified),T/C,"dose: 25.0 mg/kg/injection, schedule: Q01DX009 (ip), vehicle: saline",100 % of control
same,T/C,"dose: 50.0 mg/kg/injection, schedule: Q01DX009 (ip), vehicle: saline",107 % of control
same,T/C,"dose: 100.0 mg/kg/injection, schedule: Q01DX009 (ip), vehicle: saline",105 % of control
[Cu+2].[NH-]C(CCC(N)=O)C(=O)O.[NH-]C(CCC(N)=O)C(=O)O (stereo unspecified),T/C,"dose: 6.25 mg/kg/injection, schedule: Q04DX003 (ip), vehicle: saline",100 % of control
same,T/C,"dose: 12.5 mg/kg/injection, schedule: Q04DX003 (ip), vehicle: saline",90 % of control
CN1C(C)(C)CC(C(=O)c2ccccc2)(c2ccccc2)CC1(C)C,T/C,"dose: 50.0 mg/kg/injection, schedule: Q01DX005 (ip), vehicle: saline + Tween-80 + alcohol",107 % of control
same,T/C,"dose: 100.0 mg/kg/injection, schedule: Q01DX005 (ip), vehicle: saline + Tween-80 + alcohol",100 % of control
O=C(O)c1cocc1C(=O)N1Cc2cc3ccccc3nc2C1,T/C,"dose: 8.0 mg/kg/injection, schedule: Q01DX009 (ip), vehicle: saline with Tween-80",94 % of control
same,T/C,"dose: 16.0 mg/kg/injection, schedule: Q01DX009 (ip), vehicle: saline with Tween-80",92 % of control
same,T/C,"dose: 32.0 mg/kg/injection, schedule: Q01DX009 (ip), vehicle: saline with Tween-80",94 % of control
same,T/C,"dose: 64.0 mg/kg/injection, schedule: Q01DX009 (ip), vehicle: saline with Tween-80",108 % of control
same,T/C,"dose: 128.0 mg/kg/injection, schedule: Q01DX009 (ip), vehicle: saline with Tween-80",103 % of control
CN(C)C(OCCCC(=O)O)C(Cl)(Cl)Cl (stereo unspecified),T/C,[1],113 % of control
same,T/C,[2],96 % of control
same,T/C,[6],109 % of control
CNC(=O)NCc1cccnc1,T/C,"dose: 60.0 mg/kg/injection, schedule: Q01DX005 (ip), vehicle: saline",107 % of control
same,T/C,"dose: 120.0 mg/kg/injection, schedule: Q01DX005 (ip), vehicle: saline",103 % of control
same,T/C,"dose: 240.0 mg/kg/injection, schedule: Q01DX005 (ip), vehicle: saline",99 % of control
CC1CC=[N+]([O-])C1(C)C (stereo unspecified),T/C,[4],95 % of control
same,T/C,[5],102 % of control
same,T/C,[3],102 % of control and 86 % of control
O=C1c2ccccc2C(=O)N1CC[P+](Cc1ccccc1)(Cc1ccccc1)Cc1ccccc1,T/C,"dose: 0.78 mg/kg/injection, schedule: Q01DX009 (ip), vehicle: other",105 % of control
same,T/C,"dose: 1.56 mg/kg/injection, schedule: Q01DX009 (ip), vehicle: other",97 % of control
same,T/C,"dose: 3.13 mg/kg/injection, schedule: Q01DX009 (ip), vehicle: other",97 % of control
same,T/C,"dose: 6.25 mg/kg/injection, schedule: Q01DX009 (ip), vehicle: other",106 % of control
same,T/C,"dose: 12.5 mg/kg/injection, schedule: Q01DX009 (ip), vehicle: other",99 % of control and 90 % of control
same,T/C,"dose: 25.0 mg/kg/injection, schedule: Q01DX009 (ip), vehicle: other",112 % of control and 91 % of control
same,T/C,"dose: 50.0 mg/kg/injection, schedule: Q01DX009 (ip), vehicle: other",105 % of control
same,T/C,"dose: 100.0 mg/kg/injection, schedule: Q01DX009 (ip), vehicle: other",89 % of control
CSc1cccc(NC(=S)NN/C(=N/S(=O)(=O)c2ccccc2)N2CCCC2)c1,T/C,[1],102 % of control
same,T/C,[2],101 % of control
same,T/C,[6],99 % of control
Cc1[nH]nc(C(N)=O)c1N=NN(C)C,T/C,[4],113 % of control
same,T/C,[3],204 % of control and 209 % of control
same,T/C,"dose: 50.0 mg/kg/injection, schedule: Q04DX003 (ip), vehicle: saline with Tween-80",122 % of control
same,T/C,"dose: 100.0 mg/kg/injection, schedule: Q04DX003 (ip), vehicle: saline with Tween-80",150 % of control
same,T/C,"dose: 132.0 mg/kg/injection, schedule: Q04DX003 (ip), vehicle: saline with Tween-80",159 % of control
same,T/C,"dose: 200.0 mg/kg/injection, schedule: Q04DX003 (ip), vehicle: saline with Tween-80",154 % of control
O=C1CC=C2C3CC4N(CCC45c4cc(O)c(O)cc4N1C25)C/C3=C\CBr (stereo unspecified),T/C,"dose: 7.5 mg/kg/injection, schedule: Q01DX005 (ip), vehicle: Klucel (hydroxypropylcellulose) (HPC)",106 % of control
same,T/C,"dose: 15.0 mg/kg/injection, schedule: Q01DX005 (ip), vehicle: Klucel (hydroxypropylcellulose) (HPC)",108 % of control
same,T/C,"dose: 30.0 mg/kg/injection, schedule: Q01DX005 (ip), vehicle: Klucel (hydroxypropylcellulose) (HPC)",123 % of control
